Several values for one entry are separate records, joined by “and”; a condition that tells them apart may be missing. Equal entries are not always repeated.
Test system: 327498-153-R-J2-PDC multicell spheroid viability
Experiment: Anticancer human tumor 327498-153-R-J2-PDC patient-derived uterine carcinosarcoma cell line growth inhibition [IpAb]
Details: for viability, T/C: stronger effect = lower value
Method in brief: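 Spheroids of 60% malignant cells, 25% HUVEC and 15% MSC were exposed to targeted agents combined with ipatasertib or abemaciclib. Doses started at or near clinical Cmax (10 microM when unknown) and fell in half-log steps.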

[1] = curve of first compound, second compound 0.01 µM
[2] = curve of first compound, second compound 0.0316 µM
[3] = curve of first compound, second compound 0.1 µM
[4] = curve of first compound, second compound 0.316 µM
[5] = curve of first compound, second compound 1 µM
[6] = second compound 0.01 µM, first compound 0.0316 µM
[7] = second compound 0.01 µM, first compound 0.1 µM
[8] = second compound 0.0316 µM, first compound 0.0316 µM
[9] = second compound 0.0316 µM, first compound 0.1 µM
[10] = second compound 0.1 µM, first compound 0.0316 µM
[11] = second compound 0.1 µM, first compound 0.1 µM
[12] = second compound 0.1 µM, first compound 0.316 µM
[13] = second compound 0.1 µM, first compound 1 µM
[14] = second compound 0.1 µM, first compound 3.16 µM
[15] = second compound 0.1 µM, first compound 10 µM
[16] = second compound 0.316 µM, first compound 0.0316 µM
[17] = second compound 0.316 µM, first compound 0.1 µM
[18] = second compound 0.316 µM, first compound 0.316 µM
[19] = second compound 0.316 µM, first compound 1 µM
[20] = second compound 0.316 µM, first compound 3.16 µM
[21] = second compound 0.316 µM, first compound 10 µM
[22] = second compound 1 µM, first compound 0.0316 µM
[23] = second compound 1 µM, first compound 0.1 µM
[24] = second compound 1 µM, first compound 0.316 µM
[25] = second compound 1 µM, first compound 1 µM
[26] = second compound 1 µM, first compound 3.16 µM
[27] = second compound 1 µM, first compound 10 µM
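Wherever viability, T/C is given: 100% = DMSO vehicle control viability.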

Compound CCCS(=O)(=O)Nc1ccc(F)c(C(=O)c2c[nH]c3ncc(-c4ccc(Cl)cc4)cc23)c1F + CCN1CCN(Cc2ccc(Nc3ncc(F)c(-c4cc(F)c5nc(C)n(C(C)C)c5c4)n3)nc2)CC1 has an IC50 [1] greater than 10000 nM, an IC50 [2] greater than 10000 nM and an IC50 [3] greater than 10000 nM. The IC50 [4] was greater than 10000 nM, the IC50 [5] was greater than 10000 nM and the viability, T/C [6] was 107%. The viability, T/C [7] was 105%, the viability, T/C (second compound 0.01 µM, first compound 0.316 µM) was 104% and the viability, T/C (second compound 0.01 µM, first compound 1 µM) was 108%. The viability, T/C (second compound 0.01 µM, first compound 3.16 µM) was 98.1%, the viability, T/C (second compound 0.01 µM, first compound 10 µM) was 97.3% and the viability, T/C [8] was 81%. It also gave a viability, T/C [9] of 88.7%, a viability, T/C (second compound 0.0316 µM, first compound 0.316 µM) of 85.6% and a viability, T/C (second compound 0.0316 µM, first compound 1 µM) of 99.5%. For the same compound, the viability, T/C (second compound 0.0316 µM, first compound 3.16 µM) was 94.2%, the viability, T/C (second compound 0.0316 µM, first compound 10 µM) was 86.9% and the viability, T/C [10] was 73.4%. It also gave a viability, T/C [11] of 77.8%, a viability, T/C [12] of 77.2% and a viability, T/C [13] of 78.5%. The viability, T/C [14] was 76.6%, the viability, T/C [15] was 70.8% and the viability, T/C [16] was 70.6%. It also gave a viability, T/C [17] of 70.2%, a viability, T/C [18] of 63.8% and a viability, T/C [19] of 76.1%. It also gave a viability, T/C [20] of 73.1%, a viability, T/C [21] of 70.4% and a viability, T/C [22] of 58.9%. It also gave a viability, T/C [23] of 70.9%, a viability, T/C [24] of 72.8% and a viability, T/C [25] of 68.3%. It also gave a viability, T/C [26] of 68.3% and a viability, T/C [27] of 63.2%.
Compound C=CC(=O)N1CCN(c2nc(=O)n(-c3c(C)ccnc3C(C)C)c3nc(-c4c(O)cccc4F)c(F)cc23)C(C)C1 (configuration not stated) + CC(C)NCC(C(=O)N1CCN(c2ncnc3c2C(C)CC3O)CC1)c1ccc(Cl)cc1 has an IC50 [3] of 219 nM, an IC50 [4] of less than 31.6 nM and an IC50 [5] of less than 31.6 nM. It also gave an IC50 (curve of first compound, second compound 3.16 µM) of less than 31.6 nM, an IC50 (curve of first compound, second compound 10 µM) of less than 31.6 nM and a viability, T/C [10] of 66.7%. For the same compound, the viability, T/C [11] was 55.7%, the viability, T/C [12] was 45.3% and the viability, T/C [13] was 46.4%. The viability, T/C [14] was 43.8%, the viability, T/C [15] was 40.8% and the viability, T/C [16] was 46.2%. For the same compound, the viability, T/C [17] was 36.6%, the viability, T/C [18] was 36.8% and the viability, T/C [19] was 30.3%. The viability, T/C [20] was 30.5%, the viability, T/C [21] was 29.1% and the viability, T/C [22] was 37.3%. The viability, T/C [23] was 25.6%, the viability, T/C [24] was 22.4% and the viability, T/C [25] was 22.4%. For the same compound, the viability, T/C [26] was 21.1%, the viability, T/C [27] was 18.9% and the viability, T/C (second compound 3.16 µM, first compound 0.0316 µM) was 28.9%. The viability, T/C (second compound 3.16 µM, first compound 0.1 µM) was 19.3%, the viability, T/C (second compound 3.16 µM, first compound 0.316 µM) was 15.7% and the viability, T/C (second compound 3.16 µM, first compound 1 µM) was 16.6%. It also gave a viability, T/C (second compound 3.16 µM, first compound 3.16 µM) of 15%, a viability, T/C (second compound 3.16 µM, first compound 10 µM) of 15.7% and a viability, T/C (second compound 10 µM, first compound 0.0316 µM) of 15.2%. It also gave a viability, T/C (second compound 10 µM, first compound 0.1 µM) of 14.2%, a viability, T/C (second compound 10 µM, first compound 0.316 µM) of 14.5% and a viability, T/C (second compound 10 µM, first compound 1 µM) of 13.3%. For the same compound, the viability, T/C (second compound 10 µM, first compound 3.16 µM) was 12.1% and the viability, T/C (second compound 10 µM, first compound 10 µM) was 11.4%.
CC1(C)CCC(CN2CCN(c3ccc(C(=O)NS(=O)(=O)c4ccc(NCC5CCOCC5)c([N+](=O)[O-])c4)c(Oc4cnc5[nH]ccc5c4)c3)CC2)=C(c2ccc(Cl)cc2)C1 was tested, and the viability, T/C (compound 0.0316 µM) was 100% and 102%, the viability, T/C (compound 0.1 µM) was 104% and 105% and the viability, T/C (compound 0.316 µM) was 108% and 112%. The viability, T/C (compound 1 µM) was 102% and 108%, the viability, T/C (compound 3.16 µM) was 107% and 98.3% and the viability, T/C (compound 10 µM) was 7.23% and 3.16%. The IC50 (curve of compound) was 6020 nM and 5680 nM.
For Cn1ncnc1[C@H]1c2n[nH]c(=O)c3cc(F)cc(c23)N[C@@H]1c1ccc(F)cc1 + CCN1CCN(Cc2ccc(Nc3ncc(F)c(-c4cc(F)c5nc(C)n(C(C)C)c5c4)n3)nc2)CC1, the IC50 [1] was 18.6 nM, the IC50 [2] was 12.1 nM and the IC50 [3] was 5.76 nM. The IC50 [4] was 2.84 nM, the IC50 [5] was 3.84 nM and the viability, T/C (second compound 0.01 µM, first compound 0.000316 µM) was 96%. For the same compound, the viability, T/C (second compound 0.01 µM, first compound 0.001 µM) was 87.3%, the viability, T/C (second compound 0.01 µM, first compound 0.00316 µM) was 85.3% and the viability, T/C (second compound 0.01 µM, first compound 0.01 µM) was 58.1%. For the same compound, the viability, T/C [6] was 42.3%, the viability, T/C [7] was 25.2% and the viability, T/C (second compound 0.0316 µM, first compound 0.000316 µM) was 74.8%. For the same compound, the viability, T/C (second compound 0.0316 µM, first compound 0.001 µM) was 70%, the viability, T/C (second compound 0.0316 µM, first compound 0.00316 µM) was 63.3% and the viability, T/C (second compound 0.0316 µM, first compound 0.01 µM) was 50.3%. It also gave a viability, T/C [8] of 41.2%, a viability, T/C [9] of 28.2% and a viability, T/C (second compound 0.1 µM, first compound 0.000316 µM) of 68.3%. The viability, T/C (second compound 0.1 µM, first compound 0.001 µM) was 56.6%, the viability, T/C (second compound 0.1 µM, first compound 0.00316 µM) was 54.7% and the viability, T/C (second compound 0.1 µM, first compound 0.01 µM) was 47.2%. It also gave a viability, T/C [10] of 39.6%, a viability, T/C [11] of 28.9% and a viability, T/C (second compound 0.316 µM, first compound 0.000316 µM) of 59%. For the same compound, the viability, T/C (second compound 0.316 µM, first compound 0.001 µM) was 54%, the viability, T/C (second compound 0.316 µM, first compound 0.00316 µM) was 49.3% and the viability, T/C (second compound 0.316 µM, first compound 0.01 µM) was 44.8%. For the same compound, the viability, T/C [16] was 38.2%, the viability, T/C [17] was 32.5% and the viability, T/C (second compound 1 µM, first compound 0.000316 µM) was 62.2%. For the same compound, the viability, T/C (second compound 1 µM, first compound 0.001 µM) was 53.9%, the viability, T/C (second compound 1 µM, first compound 0.00316 µM) was 51.4% and the viability, T/C (second compound 1 µM, first compound 0.01 µM) was 45.1%. For the same compound, the viability, T/C [22] was 40.8% and the viability, T/C [23] was 31.6%.
